Results: publication PMC11412900 (Molecular Psychiatry, 2024)

Key:
[1] = target: T1, h5-HT2AR (Homo sapiens, UniProt P28223); assay type: binding; settings: 1 nM [3H]ketanserin, N ≥ 3; read-out: 5-HT2AR Ki ± SD
T1 construct: purchased Perkin Elmer, Inc. (Waltham, MA, USA)
Method: Binding assays were performed as described previously. Briefly, membrane preparations expressing h5-HT1AR, h5-HT2AR or hSERT (see Supplementary Material) were incubated with radiolabeled selective ligands 0.4 nM [^3H]8-OH-DPAT, 1 nM [^3H]ketanserin or 3 nM [^3H]imipramine, respectively. The drugs were diluted in the corresponding binding buffer and tested at increasing concentrations in duplicate. Binding reactions were performed in tubes containing the drug dilutions; 25 μl of the corresponding radioligand; and the membranes (10 μg and 5 μg/500 μL for 5-HT1AR and 5-HT2AR, respectively, and 15 μg/100 μL for hSERT), all diluted in binding buffer. […] Incubation was performed for 1 h at 27 °C for 5-HT1A/2AR and 22 °C for hSERT, according to the manufacturer’s protocol (Perkin Elmer, Inc., Waltham, MA, USA) and previous studies - saturation and kinetic experiments, respectively. The binding reactions were stopped by rapid filtration through GF/B glass microfiber filters pre-soaked with 0.5% polyethyleneimine and washing with ice-cold wash buffer. The filters were placed into vials and scintillation cocktail was added. The trapped radioactivity was quantified. Specific binding was defined as the difference between total binding (binding buffer alone) and non-specific binding. Experiments were conducted per duplicate for at least three independent experiments.

[2] = test system: head twitch response in mice; test: Head twitch response (HTR); assay type: in vivo; settings: mice, i.p.; for HTR Emax (95% CI): 10-min period
Method: HTR studies were adapted from. Mice (N = 8–10 per group) were injected intraperitoneally (i.p.) with saline or the appropriate tryptamine dose (0.3, 1, 3, 10, or 30 mg/kg) and placed into the observation arena (25 × 25 × 40 cm). A camera mounted above the observation cage recorded the mice for the next 10 min after the injection. Another batch of animals (N = 8–10) received subcutaneous injections of either saline or the respective antagonist (WAY100635 1 mg/kg for 5-HT1AR or ketanserin 1 mg/kg for 5-HT2AR). After a 10-min interval, the animals were i.p. injected with the corresponding tryptamine (10 mg/kg) and placed in the observation arena. Animal behavior was recorded for the next 10 min after the last injection, as mentioned before. Video recordings were examined by two blind observers blinded to the treatments, who assessed the number of head twitches, defined as a rapid rotational jerk of the head which is not contiguous with any grooming behavior [39].
Data were expressed as means±standard deviation (SD). Competition, release and functional assays, and substrate-induced current curves were plotted and fitted by non-linear regression to obtain the IC50, EC50, and Emax values. For behavioral studies, data were fitted by non-linear regression and pED50 and Emax values (with the corresponding 95% CI) were estimated by means of a software (GraphPad Prism 10) that further extrapolates the data. The Cheng-Prusoff equation was used to calculate Ki (affinity): Ki = […]/(1 + [radioligand-concentration/Kd]). HTR curves were fitted using a Gaussian equation as described. Data from batch release assays were statistically analyzed with a mixed-effects model, employing Šidák’s correction for multiple comparisons. Total release at each concentration and the behavioral experiments with the corresponding antagonists were statistically analyzed using one-way ANOVA, followed by Tukey’s post-hoc test. Molecular volume (van der Waals) was calculated using a grid approximation (spacing 0.75 Å). logP was calculated using Molinspiration Cheminformatics software. For in vivo studies, one-way ANOVA with Dunnet’s post-hoc test was used to compare all conditions to saline in dose-response experiments when data were normally distributed. Otherwise, a non-parametric test (Kruskall-Wallis with Dunn’s post-hoc test) was used. Alpha was set at 0.05. Outliers were excluded following ROUT’s method (Q = 0.1%). All statistical analyses and Pearson correlations were conducted using GraphPad Prism 10 software (GraphPad software, San Diego, CA, USA).

[3] = target: T2, SERT (Homo sapiens, UniProt P31645); test: Batch release of preloaded [3H]5-HT from HEK293 cells expressing SERT; assay type: cell-based; settings: for 5-HT releasing activity: with or without monensin, pCA as positive control; for 5-HT release at SERT: with or without monensin 10 µM
T2 construct: YFP (yellow-fluorescent protein); expressed in transfected cells
T2 sequence (P31645 whole entry): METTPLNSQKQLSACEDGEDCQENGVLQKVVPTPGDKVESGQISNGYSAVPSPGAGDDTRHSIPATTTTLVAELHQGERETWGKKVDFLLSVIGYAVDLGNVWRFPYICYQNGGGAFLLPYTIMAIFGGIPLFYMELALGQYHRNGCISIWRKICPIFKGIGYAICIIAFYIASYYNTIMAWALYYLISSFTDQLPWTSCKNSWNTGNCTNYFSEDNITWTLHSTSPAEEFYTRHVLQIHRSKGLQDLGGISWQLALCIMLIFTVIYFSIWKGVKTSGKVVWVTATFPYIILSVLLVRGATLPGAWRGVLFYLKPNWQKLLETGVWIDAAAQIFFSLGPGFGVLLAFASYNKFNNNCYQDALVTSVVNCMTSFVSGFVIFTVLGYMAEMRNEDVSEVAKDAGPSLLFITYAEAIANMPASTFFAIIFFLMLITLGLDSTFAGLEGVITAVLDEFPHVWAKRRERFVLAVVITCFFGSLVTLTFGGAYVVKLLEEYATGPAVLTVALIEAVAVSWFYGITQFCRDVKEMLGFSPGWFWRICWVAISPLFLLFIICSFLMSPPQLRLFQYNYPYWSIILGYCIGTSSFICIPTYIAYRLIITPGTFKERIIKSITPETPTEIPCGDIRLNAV
Method: Batch release is a functional radiometric assay to assess transporter-mediated efflux. […] Subsequently, cells were washed three times with KHB and equilibrated for 10 min in KHB or KHB+monensin (10 µM). […] 10 µM pCA and 0.05 µM paroxetine were used as positive and negative controls, respectively. Liquid scintillation cocktail was added both to the wells containing cells (200 µL) and to the transferred supernatant (100 µL). Total radioactivity determined from/in the remaining lysate of the cells plus the transferred supernatant was set as 100%, and the radioactivity determined in each fraction was expressed as a percentage thereof. Assays were performed per duplicate for five independent experiments.

[4] = target: T2, SERT; test: Whole-cell patch clamp, transporter-mediated currents in HEK293 cells; assay type: cell-based; settings: for EC50: clamped at −60 mV, N = 5, read-out: SERT-mediated inward current EC50; for SERT-mediated inward current Emax: normalized to current elicited by 5-HT 10 µM; for SERT substrate type: whole-cell patch clamp
From the text: Whole-cell patch clamping was used to measure the transporter-mediated currents and performed as previously described. […] Cells were continuously superfused by a DAD-12 superfusion system and an 8-tube perfusion manifold (ALA Scientific Instruments in Farmingdale, NY, USA), which allowed to apply a physiological external solution. The pipette solution mimics the internal ionic composition of a cell. […] Passive holding currents were subtracted, and the traces were filtered using a 50-Hz digital Gaussian low-pass filter for analysis purposes. Five independent experiments were performed.

[5] = target: T2, SERT; test: Superfusion release assay of [3H]5-HT; assay type: cell-based
Method: Concentration-response release assays were performed using a superfusion assay. […] Afterwards, cells were manually and gently washed once with KHB, and superfused with KHB at a rate of 0.5 mL/min for 10 min at room temperature (RT), to establish a stable basal release. Three 2 min-fractions of basal release were collected in 10 mL counting vials before exposing cells to various concentrations of 5-MeO-pyr-T (five fractions). Subsequently, the cells were superfused with 1% SDS for three final fractions to determine total radioactivity present at cells at the end of the experiment. 2 mL of scintillation cocktail was added to each vial, radioactivity was measured and expressed as percentage of released radioactivity in relation to the total radioactivity present at the beginning of that fraction. Experiments were performed per triplicate for five independent experiments.

T1 sequence (P28223 whole entry): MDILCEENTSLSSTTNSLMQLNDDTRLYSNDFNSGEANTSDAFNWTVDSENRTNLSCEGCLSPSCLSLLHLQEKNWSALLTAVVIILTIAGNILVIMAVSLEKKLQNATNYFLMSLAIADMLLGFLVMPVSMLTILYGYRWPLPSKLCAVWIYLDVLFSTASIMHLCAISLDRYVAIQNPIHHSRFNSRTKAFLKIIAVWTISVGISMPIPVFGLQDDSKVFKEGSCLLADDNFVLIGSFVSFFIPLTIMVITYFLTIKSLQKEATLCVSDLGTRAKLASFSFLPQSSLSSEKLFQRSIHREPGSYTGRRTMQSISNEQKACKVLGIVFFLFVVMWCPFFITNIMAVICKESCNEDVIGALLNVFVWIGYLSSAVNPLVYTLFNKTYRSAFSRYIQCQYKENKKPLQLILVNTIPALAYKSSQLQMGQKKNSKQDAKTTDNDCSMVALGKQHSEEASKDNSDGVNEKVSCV

| Compound | Ki [1] | HTR Emax (95% CI) [2] | HTR ED50 ([2]; 10 min after injection) | 5-HT releasing activity [3] | EC50 [4] | SERT-mediated inward current Emax [4] | SERT substrate type [4] | ED50 ([2]; Mus musculus, ip, 10 min, 10 min after injection) | 5-HT release at SERT [3] | 5-HT releaser type ([5]; peak of efflux vs positive control pCA) | EC50 ([5]; read-out: 5-HT release EC50, superfusion, N = 5) |
| --- | --- | --- | --- | --- | --- | --- | --- | --- | --- | --- | --- |
| C=CCN(CC=C)CCc1c[nH]c2ccc(OC)cc12 [5-MeO-DALT] | 71.7 ± 14.8 nM | 10.4 (8.5–12.4) HTR events | 4.16 mg/kg | slight to none 5-HT releasing activity | – | – | – | – | – | – | – |
| CCN(CC)CCc1c[nH]c2ccc(OC)cc12 [5-MeO-DET] | 128 ± 4 nM | 9.73 (7.61–11.85) HTR events | 2.32 mg/kg | capable of evoking 5-HT release | 3500 nM | 0.26 | partial SERT substrates | – | – | – | – |
| COc1ccc2[nH]cc(CCN(C(C)C)C(C)C)c2c1 [5-MeO-DIPT, 5-methoxy-N,N-diisopropyltryptamine] | – | 10.5 (8.5–12.5) HTR events | – | slight to none 5-HT releasing activity | – | – | – | 0.477 mg/kg | – | – | – |
| CCN(CCc1c[nH]c2ccc(OC)cc12)C(C)C [5-MeO-EIPT] | 151 ± 26 nM | 9.27 (7.10–11.44) HTR events | 10.6 mg/kg | – | – | – | – | – | < 10 % total cpm | – | – |
| CCN(C)CCc1c[nH]c2ccc(OC)cc12 [5-MeO-MET] | 94.1 ± 16.7 nM | 28.4 (23.5–33.2) HTR events | 2.72 mg/kg | capable of evoking 5-HT release | 13000 nM | 0.46 | partial SERT substrates | – | – | – | – |
| COc1ccc2[nH]cc(CCN(C)C(C)C)c2c1 [5-MeO-MIPT] | 147 ± 32 nM | 14.19 (11.7–16.68) HTR events | 0.791 mg/kg | slight to none 5-HT releasing activity | – | – | – | – | < 10 % total cpm | – | – |
| COc1ccc2[nH]cc(CCN3CCCC3)c2c1 [5-MeO-pyr-T] | 373 ± 59 nM | 10.0 (6.9–13.1) HTR events | 7.29 mg/kg | capable of evoking 5-HT release | 90 nM | 0.49 | partial SERT substrates | – | – | 5-HT partial releaser | 5700 ± 1590 nM |
